Experimental data published in US5780434A, “Composition for oral administration of peptides” (Ferring B.V., priority 1993, dated 1998).

Experiments:
[1] = Degradation of peptide in human gastro-intestinal juice (HPLC); conditions: intestinal juice from the ileum, pH 6.5, increasing amounts of aprotinin
Method: (§1) Human gastro-intestinal juice was obtained from healthy male volunteers who had been fasting for 8 h. A tube was introduced intranasally after local anaesthesia with xylocaine, and gastric juice was collected. Thereafter one standardized meal was given 1 h before sampling of duodenal and distal jejunum juice and another the next morning before the collection of distal ileal juice. After centrifugation the gastric and intestinal juices were frozen in aliquots of 1 ml and stored at -20° C.
(§2) The peptide or peptide analog (10 μl of 10 mM peptide in 0.9% aqueous NaCl) was added to 190 μl of undiluted juice at 37° C. Aliquots of 25 μl were withdrawn at intervals and mixed with 100 μl acetone to stop the reaction. After centrifugation for 10 min at 10,000 g, 10 μl of the supernatant was analyzed by reversed phase HPLC. The effects of increasing amounts of aprotinin were examined under the above conditions in intestinal juice from the ileum.
(§3) Analysis was carried out in a Varian 5000 HPLC analyzer equipped with a UV-detector (220 nm). Column Bondapak TM C18 (3.9×300 mm), eluant MeOH/0.025M NH4 Ac (isocratic conditions), flow rate 1 ml/min.

[2] = in the presence of aprotinin, rat; cited from earlier work
[3] = pH 6.5
Method: as §1, §2, §3

[4] = human, in vivo
Method: Experiments with healthy volunteers. After having fasted for 8 hours six healthy male volunteers were intubated (cf. example 1) with quadruple lumen flexible PVC tubes. The open end of the tube was positioned in the duodenum close to the pylorus; correct positioning was verified fluoroscopically. DDAVP acetate (0.4 mg in 2 ml 0.9% aqueous sodium chloride) was applied at the start and the tube was rinsed with 2 ml 0.9% aqueous sodium chloride. Perfusion with aprotinin (ANTAGOSAN™, Hoechst, Germany; aqueous solution, 10,000 kallikrein inactivator units/ml) started immediately after application of DDAVP and continued for 4 h at a rate of 5 ml/min. A standard breakfast was given 5-10 min after application of DDAVP, and a standardized meal 4 h later. From 2 h after start onwards the volunteers were given 100 ml/h water orally. Each volunteer participated in three sessions.
Bioavailability was determined for each subject in a separate session by intravenous bolus injection of DDAVP (4 μg); blood samples were drawn before and up to 8 h after drug application and analyzed for DDAVP as described above.

## aprotinin
[1]
  Inhibition of DDAVP degradation by aprotinin: concentration-dependent inhibition

## (1-deamino-4-valine)-8-D-arginine-vasopressin
[2]
  Urine retention after gastric administration of an aqueous solution: moderately enhanced

## NC(=O)CC[C@@H]1NC(=O)[C@H](Cc2ccccc2)NC(=O)[C@H](Cc2ccc(O)cc2)NC(=O)CCSSC[C@@H](C(=O)N2CCC[C@H]2C(=O)N[C@H](CCCN=C(N)N)C(=O)NCC(N)=O)NC(=O)[C@H](CC(N)=O)NC1=O [DDAVP, desmopressin]
[3]
  DDAVP degraded to (after 35 min): about 50%
[4]
  Increase of DDAVP absorption in presence of aprotinin: about five-fold
[4]; male, 0.4 mg
  DDAVP absorption (bioavailability): about 0.1 % by weight
